Target: T1, human RyR2 (Homo sapiens, UniProt Q92736)
T1 construct: expressed in transfected cells; host or cells: HEK293, transient co-transfection with mCer-SERCA2a and R-CEPIA1er
Experiment: [Ca2+]ER load in permeabilized HEK293 cells expressing GFP-hRyR2, mCer-SERCA2a, R-CEPIA1er
Assay type: cell-based
Conditions: compared to vehicle
Method: The method for measuring of [Ca^2+]ER load-leak balance in HEK293 cells was previously described ([48]). Briefly, HEK293 cells were transiently cotransfected with plasmids encoding GFP-hRyR2, mCer-SERCA2a, and R-CEPIA1er cDNAs. After 48 h of protein expression, transfected cells were used for the confocal experiments. Before each measurement, cells were washed with a solution containing (in mM): 150 K-aspartate, 0.25 MgCl2, 0.1 EGTA, 10 HEPES, pH 7.2. Then, the cellular plasma membranes were permeabilized with 0.005% saponin dissolved in the experimental solution containing (in mM): K-aspartate 100; KCl 15; KH2PO4 5; MgATP 5; EGTA 0.35; CaCl2 0.22; MgCl2 0.75; HEPES 10; dextran (MW: 40,000) 2%, pH 7.2. Free [Ca^2+] and [Mg^2+] were set at 100 nM and 1 mM respectively. After 3 min of saponin incubation, the permeabilized cells were perfused with saponin-free experimental solution.
Changes in [Ca^2+]ER load-leak balance in permeabilized HEK293 cells were monitored using a laser scanning confocal microscope (Radiance 2000 MP, BioRad) equipped with a 40× oil objective lens (N.A. =1.3). […]
Cells were perfused with the experimental solution for 3 min to ensure a steady [Ca^2+]ER signal. […] Fmax was determined upon application of 2 μM ionomycin and 10 mM Ca^2+. Changes in [Ca^2+]ER were calculated according to [Ca^2+]ER = (F−Fmin)/(Fmax−Fmin).

T1 sequence (Q92736 whole entry): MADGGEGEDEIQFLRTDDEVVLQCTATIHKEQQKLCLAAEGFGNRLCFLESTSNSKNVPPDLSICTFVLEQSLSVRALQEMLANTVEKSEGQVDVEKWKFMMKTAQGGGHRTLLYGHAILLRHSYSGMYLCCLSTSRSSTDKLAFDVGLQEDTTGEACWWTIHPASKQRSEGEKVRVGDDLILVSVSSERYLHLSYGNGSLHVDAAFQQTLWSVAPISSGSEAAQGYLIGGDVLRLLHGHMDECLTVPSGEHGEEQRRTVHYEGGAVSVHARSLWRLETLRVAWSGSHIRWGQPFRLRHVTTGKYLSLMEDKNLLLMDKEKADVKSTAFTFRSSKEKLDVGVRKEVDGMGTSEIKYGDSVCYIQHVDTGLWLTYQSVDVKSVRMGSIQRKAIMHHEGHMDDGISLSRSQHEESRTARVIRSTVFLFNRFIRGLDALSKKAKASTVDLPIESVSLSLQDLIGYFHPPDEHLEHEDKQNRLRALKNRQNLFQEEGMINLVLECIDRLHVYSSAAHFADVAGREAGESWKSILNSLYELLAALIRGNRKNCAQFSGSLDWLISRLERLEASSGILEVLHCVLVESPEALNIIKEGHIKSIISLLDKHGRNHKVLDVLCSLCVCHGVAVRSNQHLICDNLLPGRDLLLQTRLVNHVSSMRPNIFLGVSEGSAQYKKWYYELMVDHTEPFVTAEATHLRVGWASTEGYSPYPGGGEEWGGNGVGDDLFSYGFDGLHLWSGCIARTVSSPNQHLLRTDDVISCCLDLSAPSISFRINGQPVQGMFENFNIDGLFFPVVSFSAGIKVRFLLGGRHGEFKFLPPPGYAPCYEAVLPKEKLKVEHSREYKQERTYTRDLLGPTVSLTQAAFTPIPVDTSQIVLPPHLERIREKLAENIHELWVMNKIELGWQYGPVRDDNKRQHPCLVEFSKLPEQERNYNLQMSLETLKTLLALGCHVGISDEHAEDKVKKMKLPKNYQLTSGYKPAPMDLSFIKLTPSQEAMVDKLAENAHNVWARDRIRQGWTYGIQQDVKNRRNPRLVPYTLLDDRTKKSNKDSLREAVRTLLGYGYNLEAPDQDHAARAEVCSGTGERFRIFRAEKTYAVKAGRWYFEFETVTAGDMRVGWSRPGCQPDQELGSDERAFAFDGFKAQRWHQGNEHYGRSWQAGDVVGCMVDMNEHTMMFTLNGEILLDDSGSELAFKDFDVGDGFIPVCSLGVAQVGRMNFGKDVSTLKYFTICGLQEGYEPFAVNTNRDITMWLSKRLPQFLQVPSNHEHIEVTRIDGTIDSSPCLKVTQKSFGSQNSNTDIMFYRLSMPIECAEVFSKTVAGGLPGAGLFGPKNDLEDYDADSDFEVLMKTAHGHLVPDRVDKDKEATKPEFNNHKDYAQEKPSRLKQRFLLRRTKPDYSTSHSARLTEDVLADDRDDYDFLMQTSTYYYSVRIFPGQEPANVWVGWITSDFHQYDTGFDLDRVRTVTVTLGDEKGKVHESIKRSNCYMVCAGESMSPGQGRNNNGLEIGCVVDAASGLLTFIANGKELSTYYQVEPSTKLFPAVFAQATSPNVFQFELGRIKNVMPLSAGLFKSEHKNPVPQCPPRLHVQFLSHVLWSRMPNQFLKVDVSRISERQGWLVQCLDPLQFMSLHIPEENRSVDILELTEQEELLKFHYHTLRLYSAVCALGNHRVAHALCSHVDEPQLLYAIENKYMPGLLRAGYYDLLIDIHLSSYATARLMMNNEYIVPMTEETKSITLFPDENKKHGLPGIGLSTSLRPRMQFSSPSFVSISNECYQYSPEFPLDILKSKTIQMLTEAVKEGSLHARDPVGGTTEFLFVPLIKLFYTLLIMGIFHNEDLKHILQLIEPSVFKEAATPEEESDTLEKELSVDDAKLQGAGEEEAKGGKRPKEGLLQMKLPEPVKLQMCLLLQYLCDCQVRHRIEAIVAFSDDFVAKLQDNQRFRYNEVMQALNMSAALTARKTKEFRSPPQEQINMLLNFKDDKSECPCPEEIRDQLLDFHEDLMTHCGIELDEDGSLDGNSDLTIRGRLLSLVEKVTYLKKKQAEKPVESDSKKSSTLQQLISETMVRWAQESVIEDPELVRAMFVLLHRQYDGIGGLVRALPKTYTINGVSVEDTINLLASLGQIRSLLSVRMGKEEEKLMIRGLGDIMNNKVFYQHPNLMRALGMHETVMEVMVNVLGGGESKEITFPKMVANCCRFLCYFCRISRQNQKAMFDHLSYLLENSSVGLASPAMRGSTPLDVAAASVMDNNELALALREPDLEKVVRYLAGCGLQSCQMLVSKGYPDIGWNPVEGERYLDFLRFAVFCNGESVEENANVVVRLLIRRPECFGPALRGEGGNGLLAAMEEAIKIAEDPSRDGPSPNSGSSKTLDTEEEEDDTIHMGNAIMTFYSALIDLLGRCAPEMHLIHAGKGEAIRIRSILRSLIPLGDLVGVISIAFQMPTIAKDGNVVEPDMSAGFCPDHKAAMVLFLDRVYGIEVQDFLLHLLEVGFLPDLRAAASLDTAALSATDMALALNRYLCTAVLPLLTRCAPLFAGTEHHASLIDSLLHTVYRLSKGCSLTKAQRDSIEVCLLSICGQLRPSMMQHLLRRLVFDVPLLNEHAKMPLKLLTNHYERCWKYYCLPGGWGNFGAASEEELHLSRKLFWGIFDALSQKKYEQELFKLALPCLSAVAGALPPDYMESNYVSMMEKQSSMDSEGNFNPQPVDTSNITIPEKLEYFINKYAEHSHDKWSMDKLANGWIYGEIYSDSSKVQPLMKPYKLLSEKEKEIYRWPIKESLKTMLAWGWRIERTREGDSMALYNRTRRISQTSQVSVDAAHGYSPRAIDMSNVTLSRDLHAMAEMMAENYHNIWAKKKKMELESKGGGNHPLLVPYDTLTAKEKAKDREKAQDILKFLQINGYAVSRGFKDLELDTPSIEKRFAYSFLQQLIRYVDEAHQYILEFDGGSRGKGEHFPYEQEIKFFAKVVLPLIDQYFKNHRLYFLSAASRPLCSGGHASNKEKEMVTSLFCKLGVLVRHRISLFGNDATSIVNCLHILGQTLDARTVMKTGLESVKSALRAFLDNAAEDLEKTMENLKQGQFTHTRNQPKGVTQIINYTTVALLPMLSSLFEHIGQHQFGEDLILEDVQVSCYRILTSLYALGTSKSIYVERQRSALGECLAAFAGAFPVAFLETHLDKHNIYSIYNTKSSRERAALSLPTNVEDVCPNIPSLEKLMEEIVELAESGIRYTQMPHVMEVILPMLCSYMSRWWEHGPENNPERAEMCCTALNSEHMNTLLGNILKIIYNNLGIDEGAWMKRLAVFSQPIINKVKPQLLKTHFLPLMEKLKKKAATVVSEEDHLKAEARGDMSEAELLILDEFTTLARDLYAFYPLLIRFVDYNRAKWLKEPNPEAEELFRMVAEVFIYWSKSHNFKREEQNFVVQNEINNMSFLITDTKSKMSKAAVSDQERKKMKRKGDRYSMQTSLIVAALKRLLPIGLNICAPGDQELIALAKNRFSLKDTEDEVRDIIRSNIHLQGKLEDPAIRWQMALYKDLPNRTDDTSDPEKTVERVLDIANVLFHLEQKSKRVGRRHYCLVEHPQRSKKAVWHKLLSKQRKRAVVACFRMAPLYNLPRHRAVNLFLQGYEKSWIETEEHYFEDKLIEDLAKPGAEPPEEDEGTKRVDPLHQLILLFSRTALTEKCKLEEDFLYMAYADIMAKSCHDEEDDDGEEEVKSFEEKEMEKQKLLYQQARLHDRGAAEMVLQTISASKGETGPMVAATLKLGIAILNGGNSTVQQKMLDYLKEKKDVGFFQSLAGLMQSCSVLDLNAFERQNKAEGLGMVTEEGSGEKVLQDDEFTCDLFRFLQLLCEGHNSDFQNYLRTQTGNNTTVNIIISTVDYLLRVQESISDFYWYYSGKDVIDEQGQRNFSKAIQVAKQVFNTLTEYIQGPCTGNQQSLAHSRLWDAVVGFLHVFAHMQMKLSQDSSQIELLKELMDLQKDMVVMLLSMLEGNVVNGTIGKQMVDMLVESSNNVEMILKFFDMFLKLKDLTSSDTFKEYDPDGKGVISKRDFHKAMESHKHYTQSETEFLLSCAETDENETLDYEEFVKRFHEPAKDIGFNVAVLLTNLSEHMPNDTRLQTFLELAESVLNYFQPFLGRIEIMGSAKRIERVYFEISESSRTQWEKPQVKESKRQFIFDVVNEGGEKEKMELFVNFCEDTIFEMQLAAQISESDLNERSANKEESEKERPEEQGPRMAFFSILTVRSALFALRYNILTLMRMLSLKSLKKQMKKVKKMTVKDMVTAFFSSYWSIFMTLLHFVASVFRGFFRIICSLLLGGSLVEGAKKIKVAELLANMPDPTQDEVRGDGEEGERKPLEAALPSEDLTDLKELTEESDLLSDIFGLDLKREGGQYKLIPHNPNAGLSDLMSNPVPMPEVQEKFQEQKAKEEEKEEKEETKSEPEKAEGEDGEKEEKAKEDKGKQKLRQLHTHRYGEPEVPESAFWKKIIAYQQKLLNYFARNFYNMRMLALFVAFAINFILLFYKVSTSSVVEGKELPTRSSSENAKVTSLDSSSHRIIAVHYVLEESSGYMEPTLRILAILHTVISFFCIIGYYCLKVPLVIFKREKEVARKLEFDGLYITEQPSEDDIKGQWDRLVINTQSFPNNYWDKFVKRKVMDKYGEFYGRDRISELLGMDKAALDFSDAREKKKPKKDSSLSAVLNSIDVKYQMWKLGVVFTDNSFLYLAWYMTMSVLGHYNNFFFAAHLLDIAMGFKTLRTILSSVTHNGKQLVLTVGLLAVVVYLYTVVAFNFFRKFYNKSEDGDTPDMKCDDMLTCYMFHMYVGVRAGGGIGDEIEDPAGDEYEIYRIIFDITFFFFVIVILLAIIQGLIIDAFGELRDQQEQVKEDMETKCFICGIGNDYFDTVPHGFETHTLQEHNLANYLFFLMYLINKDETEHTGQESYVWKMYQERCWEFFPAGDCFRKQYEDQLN

CC(=O)O[C@H]1C[C@@]2(C)[C@@H](C[C@@H](O)[C@H]3[C@@]4(C)CC[C@@H](O)[C@@H](C)[C@@H]4CC[C@@]32C)/C1=C(\CCC=C(C)C)C(=O)O [FA, (2Z)-2-[(3R,4S,5S,8S,9S,10S,11R,13R,14S,16S)-16-acetyloxy-3,11-dihydroxy-4,8,10,14-tetramethyl-2,3,4,5,6,7,9,11,12,13,15,16-dodecahydro-1H-cyclopenta[a]phenanthren-17-ylidene]-6-methylhept-5-enoic acid]
[Ca2+]ER increase (5 μM FA): 94 ± 17% | [Ca2+]ER decrease (10 μM FA): 24 ± 8%
